Residues, ends and D or L forms follow the SMILES beside them. *: point of attachment. Cbz = O=C(OCc1ccccc1)*
What was measured:
[1] = biological target: T1, recombinant HA-tagged GPER (Homo sapiens, UniProt Q99527); assay: HA immunoblot of lysates of HEK293 cells stably expressing HA-tagged GPER; assay type: cell-based; details: various concentrations, 16 hr
T1 construct: expressed in transfected cells
Experimental: FIG. 38. […] HEK293 cells stably expressing recombinant HA-tagged GPER were treated with various concentrations of CIMBA-PROTAC-001 or partial PROTAC for 16 hr and then lysed in detergent. Equivalent amounts of protein lysate were resolved in SDS-polyacrylamide gels and then electrotransferred onto PVDF […] membranes. Membranes were probed with rabbit HA antibodies, top. HA- antibodies were stripped from the membrane at low pH and the membrane was then probed with […] transferrin receptor (TFNR) antibodies as a specificity and loading control.

ERs (ERa and ERb) = assay: Fluorescence polarization competitive binding with E2-FITC in cytosolic fractions from MCF-7 cells; parameters: species or system human
Experimental: ER binding was measured using cytosolic fractions prepared from MCF-7 cells by fluorescence polarization. MCF-7 (10^6 cells) were detached in EDTA, cell homogenates were prepared using a Dounce homogenizer and subcellular fractions were isolated by differential centrifugation as previously described (Filardo et al, 2002). The protein concentration of each fraction was determined by bichinchoninic acid (BCA) assay (Pierce ™ BCA protein assay kit, Thermo Fisher). For saturation binding assay of the probe, different concentrations of cytosolic fraction were diluted in assay buffer (10 mM Tris-HCl, pH 7.4; 50 mM KCl, 10% glycerol, 0.1 mM dithiothreitol (DTT), 1 ug/mL BGG, 10 nM protease inhibitor cocktail (Roche) to a final volume of 200 uL containing 10 nM Ez-FITC. The mixture was incubated at ambient temperature for 1 hour and interaction of the probe with cytosolic protein was determined by fluorescence polarization (FP). For competitive binding assay, an aliquot of cytosolic fraction and E2-FITC (10 nM final concentration) was mixed and incubated at 4° C. for 1 hour. Then different concentrations of drugs and controls were added to the mixture. The mixture was incubated for an additional hour and then subjected to FP. All samples were measured in triplicate. Negative controls (only cytosolic fraction or only E2-FITC) and positive control (E2-FITC and cytosolic fraction at 100% binding without treatment) were included. Relative binding affinities were expressed as the percentage of FP recorded from treated wells compared to the positive control. FP values in millipolarization units (mP) were measured at ex/em wavelength of 485 nm/530 nm respectively using the Spectra Max plus 384 Microplate Spectrophotometer (Molecular Devices, Sunnyvale, CA) in 96-well, black, flat-bottom microplates (Greiner Bio-One North America, Inc., Monroe, NC). Kd values of the probe were determined by nonlinear regression fitting of the saturation curves, while IC50 values of treatment were determined by nonlinear regression fitting of the competition curves.
In contrast to GPER, ERa and ERb are intracellular receptors that are concentrated in the cytoplasm and in the nucleus. […] A saturation analysis was performed using 10 nM E2-FITC and increasing concentrations of cytosolic protein (FIG. 25D).

GPER [2] = biological target: T2, GPER (Homo sapiens, UniProt Q99527); details: Filardo et al., 2007; cited from earlier work
GPER [3] = biological target: T2, GPER; details: Filardo et al., 2007; cited from earlier work; remark: listed apart in the source
HiBiT-ERα = biological target: T3, HiBiT-ERα (Homo sapiens, UniProt P03372); assay: Nano-BiT binary luminescence complementation, transfected HEK-293 cells, total receptor; assay type: cell-based; details: for effect on UI-EP001 / UI-EP002 degradation of HiBiT-ERα: 100 µM UI-EP001 or UI-EP002, 1 hour, MG132 10 µM, chloroquine 100 µM, E2 or aldosterone 100 nM-100 µM
T3 sequence (P03372 1-595): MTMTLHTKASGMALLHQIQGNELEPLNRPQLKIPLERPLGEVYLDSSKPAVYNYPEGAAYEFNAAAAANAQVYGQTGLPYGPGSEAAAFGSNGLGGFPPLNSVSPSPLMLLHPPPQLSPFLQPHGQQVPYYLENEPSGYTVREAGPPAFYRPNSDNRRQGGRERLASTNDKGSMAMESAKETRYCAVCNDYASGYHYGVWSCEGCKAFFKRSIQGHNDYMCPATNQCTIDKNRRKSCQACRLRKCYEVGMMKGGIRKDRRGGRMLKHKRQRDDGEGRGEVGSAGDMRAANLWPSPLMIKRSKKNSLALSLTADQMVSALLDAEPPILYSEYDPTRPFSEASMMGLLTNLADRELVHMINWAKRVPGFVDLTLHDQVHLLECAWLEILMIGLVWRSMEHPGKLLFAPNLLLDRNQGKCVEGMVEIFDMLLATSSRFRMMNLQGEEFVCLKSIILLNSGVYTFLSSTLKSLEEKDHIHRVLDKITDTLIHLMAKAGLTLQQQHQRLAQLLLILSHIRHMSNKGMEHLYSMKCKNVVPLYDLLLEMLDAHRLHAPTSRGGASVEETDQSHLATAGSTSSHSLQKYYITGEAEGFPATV
Experimental: FIG. 26. […] HEK-293 cells (ERα^-, GPER^-) were transiently transfected with 50 ng HiBiT-GPER or HiBiT-ER plus pcDNA3.1(+) zeo carrier plasmid. […] Results shown represent the mean ± S.E. of three independent experiments.
(§1) FIG. 28. […] Total receptor was then measured by binary luminescence complementation in detergent-permeabilized cells. […] Total receptor was then quantified by binary luminescence complementation. Representative luminescence data and mean values and SDs derived from three independent experiments are shown.
(§2) Transient transfections and binary Nano-Bit ™ luminescence assays. Total HiBiT-tagged GPER or ER estrogen receptors were detected in detergent-permeabilized cells by binary luminescence complementation with recombinant LgBit and substrate using the Nano-Glo HiBiT Extracellular Detection system kit (Promega Corporation, Madison, Wl). In brief, HEK293 cells (0.75 × 10^6) were seeded in 35 mm tissue culture dishes and 24 hours later were transiently transfected with 50 ng of HiBiT-GPER or HiBiT-ERa and 950 ng of pcDNA3.1(+) zeo carrier plasmid using Lipofectamine 2000 (Invitrogen, Carlsbad, CA). The next day transfected cells were harvested by trypsinization and seeded at a density of 10^4 cells/well in 96-well poly-L-lysine-coated Greiner white-bottomed microplates. On the following day, cell culture media was aspirated and replaced with 100 µL of serum-free PRF-DF12 containing E2-PROTAC, partial-PROTAC, or vehicle at various concentrations and for indicated time intervals at 37° C. […] Following treatment, total HiBiT-tagged receptor was measured in cells which were permeabilized in 0.05% Triton X-100 using HiBiT complementation reagent consisting of LgBiT protein and Nano-Gio® HiBiT substrate. Luminescence was measured using the Infinite 200 PRO multimode microplate reader from Tecan (Raleigh, NC) and reported as Relative Luminescent Units (RLU). All samples were measured in triplicate and expressed as the mean value plus or minus standard deviation.

HiBiT-GPER = HiBiT-GPER (Homo sapiens, UniProt Q99527); assay: as above; assay type: cell-based; details: for effect on UI-EP001 / UI-EP002 degradation of HiBiT-GPER: 100 µM UI-EP001 or UI-EP002, 1 hour, MG132 10 µM, chloroquine 100 µM, E2 or aldosterone 100 nM-100 µM
Experimental: FIG. 26. […] HEK-293 cells (ERα^-, GPER^-) were transiently transfected with 50 ng HiBiT-GPER or HiBiT-ER plus pcDNA3.1(+) zeo carrier plasmid. […] (C) Histogram depicting total HiBiT-GPER and HiBiT-ER following a 1-hour treatment at […] drug or control. […] Results shown represent the mean ± S.E. of three independent experiments.
as §1, §2

ERβ = ERβ (Homo sapiens, UniProt Q92731); assay: Immunostaining of endogenous receptors in MCF-7 cells; details: MCF-7, 1 hour
SKBR3 cells = assay: Cell cycle analysis, propidium iodide, flow cytometry; assay type: cell-based, human; details: SKBR3, 10 µM, 24 hours
Description: (§3) FIG. 30. E2-PROTACs promote estrogen receptor-dependent G2/M arrest. E2-PROTAC induced G2/M arrest in human breast cancer cell lines expressing membrane and/or intracellular estrogen receptors. […] Fixed cells were permeabilized and dyed with propidium iodide (PI). Cell cycle data were acquired on a flow cytometer and analyzed using Flow-Jo software. Data are expressed as mean ± SEM (n=3). The percentage of cells in each phase were plotted using Prism 8.0.
(§4) Cell cycle analysis. […] Following treatment, cells were harvested by trypsinization and washed twice in ice-cold PBS. Cells were then fixed in 70% ethanol at 4° C. for 30 minutes. Fixed cells were pelleted by centrifugation at 230 g for 5 minutes and the cell pellet was incubated in Krishan’s solution (3.8 mM sodium citrate (Fisher Scientific), 0.014 mM propidium iodide (AnaSpec, Fermont, Ca), 1% NP-40 (Sigma) and 2.0 mg/mL RNase A (Fisher Scientific)) for 30 minutes at 37° C. Cells were then centrifuged and washed in PBS prior to analysis using a FacScallibur flow cytometer. The data from flow cytometry were subjected to further analysis by CellQuest software version 3.3. DNA histograms generated indicate the fractions of the cell population in the sub-G1, G0-G1, S, or G2/M phase of the cell cycle.
(§5) To investigate the biological effect associated with decreased cell viability, cell cycle analysis was performed on the same four cell lines using propidium iodide staining and measured by flow cytometry 24 hours after treatment of cells with 10 µM E2-PROTAC or partial PROTAC (FIG. 30).

MCF-7 cells = assay: as above; assay type: cell-based, human; details: MCF-7, 10 µM, 24 hours
Description: as §3, §4, §5

HCC1806 cells = assay: as above; assay type: cell-based, human; details: HCC1806, 10 µM, 24 hours
Description: as §3, §4, §5

GPER [4] = biological target: T2, GPER; assay: Competitive binding assay in intact SKBR3 cells with E2-FITC as fluoro-tracer (flow cytometry); parameters: endogenous in cells; host or cells: SKBR3 human breast carcinoma cells (ATCC); details: concentrations as high as 10 mM
ERα = biological target: T4, ERα (Homo sapiens, UniProt P03372); assay: Immunostaining of endogenous receptors in MCF-7 cells; details: MCF-7, 1 hour
T4 sequence (P03372 1-595): T3 sequence (P03372 1-595)

GPER [5] = biological target: T2, GPER; assay: as above; details: MCF-7, 1 hour
[6] = increasing doses, 1 hour, partial PROTAC 100 µM

Chain of HiBiT-GPER (Q99527 whole entry): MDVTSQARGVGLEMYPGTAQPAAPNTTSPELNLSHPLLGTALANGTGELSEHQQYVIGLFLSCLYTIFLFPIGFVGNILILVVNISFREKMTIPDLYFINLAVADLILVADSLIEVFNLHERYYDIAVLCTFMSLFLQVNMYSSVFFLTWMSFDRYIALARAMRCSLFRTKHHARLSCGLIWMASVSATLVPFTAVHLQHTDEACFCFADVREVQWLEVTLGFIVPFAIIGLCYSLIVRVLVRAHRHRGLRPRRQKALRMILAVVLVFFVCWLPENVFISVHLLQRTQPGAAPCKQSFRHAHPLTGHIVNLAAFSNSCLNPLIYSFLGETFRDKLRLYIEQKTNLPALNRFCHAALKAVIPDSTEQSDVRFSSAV
T2 sequence (Q99527 whole entry): as above
Chain of ERβ (Q92731 whole entry): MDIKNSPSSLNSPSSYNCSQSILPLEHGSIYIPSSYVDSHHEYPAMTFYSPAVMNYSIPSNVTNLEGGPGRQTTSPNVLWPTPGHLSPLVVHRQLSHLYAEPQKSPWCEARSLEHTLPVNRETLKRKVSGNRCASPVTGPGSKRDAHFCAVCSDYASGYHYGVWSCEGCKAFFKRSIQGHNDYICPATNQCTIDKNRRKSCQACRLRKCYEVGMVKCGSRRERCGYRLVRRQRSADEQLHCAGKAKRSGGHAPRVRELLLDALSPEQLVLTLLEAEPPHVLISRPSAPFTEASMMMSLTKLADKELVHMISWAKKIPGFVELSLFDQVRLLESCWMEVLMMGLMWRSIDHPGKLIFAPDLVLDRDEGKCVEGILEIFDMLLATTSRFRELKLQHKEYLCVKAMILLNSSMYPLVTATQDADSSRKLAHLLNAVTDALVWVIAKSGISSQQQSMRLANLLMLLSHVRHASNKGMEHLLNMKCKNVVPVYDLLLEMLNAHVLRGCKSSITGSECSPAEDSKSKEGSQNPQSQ
T1 sequence (Q99527 whole entry): as the sequence (Q99527 whole entry) above

## COc1ccc(CNc2ccc(C(C)C)cc2N2CCN(C(=O)COCCOCCOCCOCC(=O)NC(C(=O)N3CC(O)CC3C(=O)NCc3ccc(-c4scnc4C)cc3)C(C)(C)C)CC2)cc1 (stereo not drawn) [CIMBA-PROTAC-001]
[1]
  degradation of recombinant GPER: degrades recombinant GPER

## C[C@]12CC[C@@H]3c4ccc(O)cc4C[C@@H](CCCCCCCCC[S+]([O-])CCCC(F)(F)C(F)(F)F)[C@H]3[C@@H]1CC[C@@H]2O (stereo partly drawn) [Fulvestrant]
GPER [2]
  relative binding activity: 5%
GPER [3]
  concentration at which it functions as a GPER agonist: 500 nM

## CC(C)C[C@@H](C=O)NC(=O)[C@H](CC(C)C)NC(=O)[C@H](CC(C)C)NC(=O)OCc1ccccc1 [MG132] (Cbz-Leu-Leu-Leu-aldehyde)
HiBiT-ERα
  effect on UI-EP001 / UI-EP002 degradation of HiBiT-ERα: reversed
HiBiT-GPER
  effect on UI-EP001 / UI-EP002 degradation of HiBiT-GPER: reversed

## Cc1ncsc1-c1ccc(CNC(=O)C2CC(O)CN2C(=O)C(NC(=O)COCCOCCOCCOCC(=O)O)C(C)(C)C)cc1 (stereo not drawn) [Partial PROTAC, reference compound]
ERβ
  nuclear ERβ expression: did not impact
SKBR3 cells
  cell cycle distribution: much less significant shift
MCF-7 cells
  cell cycle distribution: much less significant shift
HCC1806 cells
  cell cycle distribution: much less significant shift
GPER [4]
  competition for E2-FITC binding: unable to compete for E2-FITC binding
HiBiT-ERα; [6]
  change of HiBiT-ERα: did not show any significant decrease
ERα
  nuclear ERα expression: did not impact
GPER [5]
  intracellular GPER expression: did not impact
HiBiT-GPER; 100 µM, 8 hrs, recombinant receptor, GPER or ER not specified
  receptor present after treatment: 83%
HiBiT-GPER; [6]
  change of HiBiT-GPER: did not show any significant decrease

## C[C@]12CCC(=O)C=C1CC[C@@H]1[C@@H]2[C@@H](O)C[C@]2(C=O)[C@@H](C(=O)CO)CC[C@@H]12 [aldosterone]
HiBiT-ERα
  effect on UI-EP001 / UI-EP002 degradation of HiBiT-ERα: not aldosterone was capable of blocking
HiBiT-GPER
  effect on UI-EP001 / UI-EP002 degradation of HiBiT-GPER: not aldosterone was capable of blocking

## CCN(CC)CCCC(C)Nc1ccnc2cc(Cl)ccc12 (stereo not drawn) [chloroquine, chloroquine diphosphate]
HiBiT-GPER
  effect on UI-EP001 / UI-EP002 degradation of HiBiT-GPER: had no such effect

Source: patent publication US20230312639A1, “GPER PROTEOLYTIC TARGETING CHIMERAS” (University of Iowa Research Foundation, priority 2020, published 2023)
